According to PubChem BioAssay AID493191 (Broad Institute, 2011):

Tested on: MALME3 melanoma viability, CellTiter-Glo luminescence, 24 h
Experiment: MALME3 melanoma cell viability loss, dose response, orthogonal assay for MITF inhibitor project, CellTiter-Glo, cherry-picked (AID 493191)

Cc1c(CCOC(=O)c2ccc(Cl)cc2Cl)sc[n+]1CC(=O)c1ccc(Br)cc1
AC50: 29.3 µM

COc1ccc2oc(C(=O)Nc3ccc(S(=O)(=O)N(C)C4CCN(C)CC4)cc3)c(C)c2c1
AC50: 33.5 µM

COC1=C(Nc2ccccc2)C(=O)c2ccccc2C1=O
AC50: 22 µM

O=C(CCl)Nc1cccc(S(=O)(=O)N2CCCCCC2)c1
AC50: 17.9 µM

N#CC(C#N)=C1C=CC=CN1/C(=C\c1ccco1)C(=O)c1ccc(Br)cc1
AC50: 24.6 µM

CCOC(=O)c1ccc(NC(=O)c2nc(S(=O)(=O)Cc3ccccc3)ncc2Cl)cc1
AC50: 4.47 µM

O=C1NC2c3c(I)sc(I)c3C(=O)C2O1 (stereo not given)
AC50: 16.6 µM

CC(=O)c1cccc(NC(=O)/C=C/c2ccc([N+](=O)[O-])s2)c1
AC50: 16.8 µM

CC1CCCCC1NC(=O)/C(C#N)=C/C=C/c1ccccc1[N+](=O)[O-] (stereo not given)
AC50: 27.5 µM

Cc1ccccc1OCc1n(CC(=O)OC2CC(C)CCC2C(C)C)c2ccccc2[n+]1C (stereo not given)
AC50: 9.18 µM

O=C(N/N=C\c1ccc([N+](=O)[O-])o1)C1COc2ccccc2O1 (stereo not given)
AC50: 32.7 µM

O=[N+]([O-])c1cccc2c(N3CCCC3)ccnc12
AC50: 4.82 µM

CCCOCc1ccc(O)c2ncccc12
AC50: 32.2 µM

Cc1ccc([N+](=O)[O-])cc1N1C(=O)CS/C1=N\NC(=O)c1cccnc1
AC50: 24.2 µM

N=c1n(CC(=O)c2ccc([N+](=O)[O-])cc2)c2ccccc2n1Cc1ccc(Cl)cc1
AC50: 17.2 µM

CCc1ccc(NC2=CC(=O)C(=O)c3ccccc32)cc1
AC50: 6.91 µM

CN1CCN(c2ccc(NC(=O)c3ccc([N+](=O)[O-])o3)cc2Cl)CC1
AC50: 21.3 µM

COc1ccc2[nH]cc(C(=O)CCl)c2c1
AC50: 15.1 µM

O=C(Cn1ncc(Cl)c(Cl)c1=O)c1ccc(Cl)cc1
AC50: 26.5 µM

CC(=O)N1CCc2c(sc(NC(=O)c3ccc([N+](=O)[O-])o3)c2C#N)C1
AC50: 9.37 µM

CN1CCN(C2=C(NS(=O)(=O)c3cccs3)C(=O)c3ccccc3C2=O)CC1
AC50: 14.6 µM

CCn1c(/C=C/Nc2ccccc2)[n+](CC)c2cc(Cl)c(Cl)cc21
AC50: 29.6 µM

O=C(/C=C/c1cccc([N+](=O)[O-])c1)c1cccs1
AC50: 33.1 µM

CCOC(=O)c1c(C)oc2c1C(=O)c1ccccc1C2=O
AC50: 7.25 µM

O=C(N/N=C/c1cccc2cccnc12)c1ccccc1O
AC50: 29.7 µM

COc1ccc(Oc2cc(NC(=O)c3nn(C)cc3[N+](=O)[O-])cc([N+](=O)[O-])c2)cc1
AC50: 17.7 µM

Cc1ccc(S(=O)(=O)/N=C2\C(=O)c3ccccc3C([O-])=C2n2cc[n+](CCC(C)C)c2)cc1
AC50: 11.4 µM

CCc1ccccc1NC(=O)CN(C)C(=O)Cn1ncc(Cl)c(Cl)c1=O
AC50: 11.8 µM

O=C1Nc2cc(C(=O)NCCN3CCCCCC3)ccc2S/C1=C\c1ccccc1
AC50: 28.4 µM

N#C/C(=C(/O)c1ccc([N+](=O)[O-])o1)c1nc2ccccc2[nH]1
AC50: 9.62 µM

CCOC(=O)c1nnn(-c2ccc([N+](=O)[O-])cc2[N+](=O)[O-])c1C
AC50: 16 µM

Cn1nnnc1Sc1ncnc2scc(-c3ccc(C#N)cc3)c12
AC50: 28.5 µM

CCN(CC)CCCNC1=C(Cl)C(=O)c2ccccc2C1=O
AC50: 5.64 µM

CC(=O)Cn1ncc(Br)c(Br)c1=O
AC50: 14.6 µM

COc1ccc(CNCCC(c2ccc(F)cc2)c2ccc(OC)cc2)cc1 (stereo not given)
AC50: 22 µM

O=C1c2ccccc2C(=O)c2c1ncn2-c1ccccc1
AC50: 19.2 µM

Cc1cc(C)cc(NC(=O)c2ccc([N+](=O)[O-])o2)c1
AC50: 17.9 µM

CCN(CC)CCn1nc2c3c(cccc3c1=O)-c1ccccc1-2
AC50: 28.4 µM

O=C(Cn1ncc(Cl)c(Cl)c1=O)N1CCc2ccccc21
AC50: 5.98 µM

CCN1CCN(CCCNC(=O)c2ccc3c(c2)NC(=O)/C(=C\c2cccc(C)c2)S3)CC1
AC50: 28.1 µM

CC1(C)Cc2ccccc2C2=NNC(=O)C2=N1
AC50: 7 µM

Cc1ccc(C(O)(c2ccc(C)c(C)c2)C2CN3CCC2CC3)cc1C (stereo not given)
AC50: 22.7 µM

CCOC(=O)c1cc2sccc2n1CC(=O)N1c2ccccc2CC1C (stereo not given)
AC50: 25 µM

CS(=O)(=O)c1ncc(Cl)c(C(=O)Nc2ccc(N3CCOCC3)cc2)n1
AC50: 10.7 µM

CC(C)(C)c1ccc(Cn2c(=N)n(CC(O)c3ccco3)c3ccccc32)cc1 (stereo not given)
AC50: 18.3 µM

O=C(Cn1ncc(Cl)c(Cl)c1=O)N1CCN(Cc2ccccc2)CC1
AC50: 8.57 µM

C=CCNC1=C(Cl)C(=O)c2ccccc2C1=O
AC50: 15.6 µM

N=c1n(Cc2ccc(Cl)cc2)c2ccccc2n1CC(O)COc1ccccc1 (stereo not given)
AC50: 14.8 µM

Cc1ccc(C(C)C)c(OCc2nn(CC(=O)c3ccc(Cl)cc3)c3[n+]2CCCCC3)c1
AC50: 18.4 µM

CCOC(=O)CSC1=NC(=O)/C(=C/c2ccc(OC)cc2)S1
AC50: 3.6 µM

COc1ccccc1NS(=O)(=O)c1cccc(C(=O)N/N=C/c2ccc([N+](=O)[O-])o2)c1
AC50: 14.6 µM

CCn1c(=O)c([N+](=O)[O-])c(Cl)c2ccccc21
AC50: 27.9 µM

COc1cc(CNC2CCCC2)cc(Cl)c1OCc1ccccc1Cl
AC50: 17.6 µM

CCOc1cc(/C=N/N=C(N)N)ccc1OCc1ccc(Cl)cc1
AC50: 18.8 µM

CN(C(=O)/C=C/c1ccc([N+](=O)[O-])s1)c1ccccc1
AC50: 34.4 µM

CC(=O)N(C)C1=C(N2CCOCC2)C(=O)c2ccccc2C1=O
AC50: 12.7 µM

O=C1C=CC(=C(c2ccc(O)cc2)c2ccc(O)cc2)C=C1
AC50: 29.4 µM

Cc1scc(C(=O)N/N=C/c2ccc([N+](=O)[O-])o2)c1C
AC50: 15.7 µM

O=C(Nc1ccc(S(=O)(=O)NC2=NCCCCC2)cc1)c1ccc([N+](=O)[O-])s1
AC50: 18.4 µM

COc1cc2c(cc1OC)C(c1ccccc1)N(C(=O)CCl)CC2 (stereo not given)
AC50: 18 µM

CN1CCN(C2=C(NS(=O)(=O)c3ccccc3)C(=O)c3ccccc3C2=O)CC1
AC50: 11.2 µM

CCOc1ccc(-n2c(C)cc(C(=O)CCl)c2C)cc1
AC50: 19.9 µM

CCN(CC)CCNC(=O)c1ccc(NC(=O)c2cn(-c3ccccc3)nc2-c2cccs2)cc1
AC50: 17.8 µM

CC1CCC(C(C)C)C(OC(=O)C[n+]2cc(-c3ccc(Cl)cc3)n3c2CCCCC3)C1 (stereo not given)
AC50: 18 µM

COc1cc(NC(=O)c2[nH]cnc2C(N)=O)cc(C(=O)Nc2cccc(C(F)(F)F)c2)c1
AC50: 11.2 µM

c1ccc2cc3c(NCCN4CCOCC4)ccnc3cc2c1
AC50: 4.49 µM

COCCN(CC(=O)NC1CCCCC1)C(=O)/C=C/C(=O)c1ccc(OC)cc1O
AC50: 6.68 µM

Cc1cc(Br)ccc1NC(=O)CNC(=O)Cn1ncc(Cl)c(Cl)c1=O
AC50: 5.54 µM

C=CCn1c(C)cc(C2=NNC(=NCC)SC2)c1C
AC50: 17.6 µM

O=C(N/N=C/c1ccc([N+](=O)[O-])o1)c1cc2ccccc2o1
AC50: 10.5 µM

CCc1cc[n+](C2=C([O-])c3ccccc3C(=O)/C2=N\S(=O)(=O)c2cccs2)cc1
AC50: 4.51 µM

Cc1ccc(NC(=O)c2cc(N3C(=O)C=CC3=O)ccc2N2CCOCC2)cc1
AC50: 10.1 µM

O=c1c(Cl)c(Cl)cnn1Cc1ccc(F)cc1
AC50: 31.6 µM

Cc1ccc(Oc2c(C(N)=O)cc([N+](=O)[O-])cc2[N+](=O)[O-])cc1
AC50: 25.9 µM

Cc1ccccc1C(=O)N/N=C/c1ccc([N+](=O)[O-])s1
AC50: 30.9 µM

S=C=Nc1cccc(C2(N3CCCCC3)CCCCC2)c1
AC50: 26 µM

O=C(Nc1cc(-c2nc3ncccc3o2)ccc1Cl)c1ccc([N+](=O)[O-])o1
AC50: 18.2 µM

COc1cccc2sc(N3CCN(C(=O)c4ccc([N+](=O)[O-])o4)CC3)nc12
AC50: 23.4 µM

CCOC(=O)c1c(C)oc2c(F)c(F)c(F)c(F)c2c1=O
AC50: 19.4 µM

Cc1cc2ncn(/N=C/c3ccc([N+](=O)[O-])o3)c2cc1C
AC50: 15.9 µM
